In EP1169044B1, “USE OF FUCOSYLATED SIALYLATED N-ACETYL LACTOSAMINE CARBOHYDRATE STRUCTURES FOR INHIBITION OF BACTERIAL ADHERENCE” (Borén, Thomas, priority 1999, dated 2000):

What was measured:
Assay type in all cases: binding, Helicobacter pylori
[1] = system: 91 Swedish clinical H. pylori isolates; settings: out of 91 clinical isolates
Experimental: Bacteria were grown at 37°C in 10 % CO2 and 5% O2 (T. Borén, P. Falk, K. A. Roth, G. Larson, and S. Normark, Science.. 262, 1892(1993), for 2 days for optimal Le b antigen binding activity.

H. pylori strains = experiment: radio immuno analysis (RIA) with 125I-labelled neoglycoconjugates; settings: strains of Fig. 4 (BabA2 mutant, babA1A2 mutant, CCUG 17875, CCUG 17874), 400 ng conjugate, 30 min
Experimental: Bars, from the left to the right; The sialyl-alfa2.61actose-, sialyl-alfa2.31actose-, sialyl-Lewis a-, sialyl-Lewis x-, and Lewis b-, synthesised sialyl-Lewis x- sialyl-acetyllactosaminee, both with a either a 3 carbon or 14 carbon (extended/hydrophilic) spacer, conjugated to albumin, Finally, the histo-blood group antigen Lewis y (synthesised penta-saccharide) (V. Behar and S.J. Danishefsky, Angew. Chem. Int. Ed. Engi, 1994, 33, no. 14, 1468.), was analysed as a neo-glycoconjugate.
The sialyl-alfa2.3lactose-, sialyl-alfa2.61actose-, sialyl-Lewis a-, and Lewis b-oligosaccharide antigens used for neoglycoconjugate preparations were purified by HPLC, structurally identified and characterized with NMR-spectroscopy, and more than 95% pure. These conjugates were attached to albumin with an APD (acetylphenylenediamine) spacer attached to the carbohydrate by reductive animation and thus the terminal reducing monosaccharide unit of the oligosaccharide is reduced and is present as an aminoalditol, IsoSep AB, Tullinge, Sweden (T. Borén, P. Falk, K. A. Roth, G. Larson, and S. Normark, Science. 262, 1892 (1993), P. D. Rye, Nature Biotechnology 2, 155 (1996)). The synthesised sialyl-Lewis x- tetrasaccharide antigen was conjugated to albumin with the MPE (mercaptopropionyl-amidoethyl) -spacer, IsoSep AB. Synthesised sialyl-Lewis x-tetrasaccharide and sialyl-acetyllactosaminee, both with a either a 3 carbon or 14 carbon (extended/hydrophilic) spacer, conjugated to albumin, were obtained from Dextra Laboratories, Reading, UK. The RIA (Fig. 4) was performed according to (P. Falk, T. Borén, D. Haslam, M. G. Caparon, Meth. Cell Biol. 45, 161 (1994)) with minor modifications; the glycoconjugates were ^125I-labelled by the Chloramine T method. 1 ml of bacteria (A600= OD 0.10) was incubated with 400 ng of ^125I-labelled conjugate (that is an excess of receptor substrate) for 30 min. in phosphate buffered saline (PBS), 0.5 % albumin, 0.05 % Tween-20 (BB-buffer). After centrifugation, the ^125I-activity bound to the bacterial pellet was measured by gamma scintillation counting. Binding experiments were reproducible and performed in triplets. In addition, the level of binding-activity within the strain was stabile.

[2] = system: CCUG 17875 and the babA1A2 double mutant; experiment: H. pylori adherence to immobilized neoglycoconjugates in ELISA; settings: strain not specified (CCUG 17875 and babA1A2 double mutant tested)
Experimental: CCUG 17875 (75) and the babA1A2 double mutant (DM) were added to the ELISA in a series labelled A-F. Adherent bacteria were detected by polyclonal rabbit antisera against H. pylori CCUG 17875. The products of the horseradish peroxidase reaction were quantified in a microtiter plate reader.
Sialyl-Lewis a-PAA, sialyl-Lewis x-PAA, 3'-HSO3-Lewis a-PAA, and 3'-HSO3-Lewis x-PAA, i.e. synthesised sialylated or sulphated Lewis antigens conjugated to polyacrylamide backbone were obtained from Syntesome GmbH, Munchen, Germany. The conjugates were added in dilution series of 1µg, 100ng, and 10 ng, in 90µl 1% BSA PBS 0.05% Tween, to streptavidin coated microtiter (ELISA) plates (Roche Diagnostics Scandinavia AB, Bromma, Sweden). After one hour of incubation in room temperature, the plate was blocked over night at 4°C, with 500ng biotinylated albumin in 300µl 1% BSA PBS 0.005% Tween. […] Adherent bacteria were detected by polyclonal rabbit antisera at a dilution of 1:3000, raised against formalin fixed bacteria of strain CCUG 17875 in New Zealand rabbits (Agrisera AB, Vännäsby, Sweden) The antibodies were allowed to incubate in 1% BSA in PBS 0.05% Tween for 30 minutes at room temperature. […] The products of the horseradish peroxidase reaction were quantified in a microtiter plate reader at 490 nm.

| Molecule | number of isolates that bound the neoglycoconjugate antigen [1] | binding of 125I-labelled neoglycoconjugate (in words) (H. pylori strains) | binding of 125I-labelled neoglycoconjugate (in words) (H. pylori strains; listed as Lewis y pentasacharide antigen) | binding to immobilised antigen in ELISA (in words) [2] |
| --- | --- | --- | --- | --- |
| CC(=O)NC1C(OC2C(O)C(O)OC(CO)C2O)OC(CO)C(OC2OC(CO)C(O)C(O)C2OC2OC(C)C(O)C(O)C2O)C1OC1OC(C)C(O)C(O)C1O (centres unmarked) [Lewis y penta-saccharide antigen, Fucα2Galβ4GlcNAcβ3Gal 3 Fucα1] | None | did not demonstrate any binding activity | did not detect any binding activity |  |
| HSO3-3Galβ3GlcNAcβ3Galβ4Glc 4 Fucα1 [3'HSO3Lewis a] |  |  |  | no binding above background |
| HSO3-3Galβ4GlcNAcβ3Galβ4Glc 3 Fucα1 [3'HSO3Lewis x] |  |  |  | no binding above background |
